Experimental data published in US20250268925A1, “METHODS OF TREATING MEDICAL CONDITIONS AND INHIBITING LINE1 REVERSE TRANSCRIPTASE USING A SUBSTITUTED ADENINYL-PROPYLOXY PHOSPHONIC ACID OR RELATED COMPOUND” (ROME THERAPEUTICS, INC., priority 2021, published 2025).

Legend:
[1] = system: Type 1 Interferon; assay: Cellular assay for altering IFN production in THP1 TREX1 KO cells; format: cell-based; conditions: THP1-Dual KO-TREX1 cells, 1 μM 5-aza-2′-deoxycytidine, five days; direction of effect per figure legend
Protocol: (§1) THP1-Dual™ KO-TREX1 cells were purchased from Invivogen (cat #thpd-kotrex). The THP1-Dual™ KO-TREX1 cells were cultured in RPMI 1640, 10% heat-inactivated fetal bovine serum, 25 mM HEPES, 10 μg/mL Blasticidin, and 100 μg/mL Zeocin. THP1-Dual™ KO-TREX1 cells were treated with a dose titration of test compound in the presence of 1 μM 5-aza-2′-deoxycytidine (Sigma, cat #189825). Type 1 Interferon and cell viability were assessed after five days of treatment.
Stock solution of test compound was prepared in DMSO followed by a three-fold dilution in DMSO. Additional 50× dilution was prepared in cell culture media for each dilution. 10 μL of diluted test compound was then added to a 384-well plate.
THP1-Dual™ KO-TREX1 cells were treated with 1 μM 5-aza-2′-deoxycytidine. The THP1-Dual™ KO-TREX1 cells (50 μL) were added to each well of the 384-well plate containing test compound titration at 10,000 cells/well. Cells were incubated at 37° C., 5% CO2 in a humidified incubator for five days. On day five, 20 μL of cell supernatant was transferred to a 384-well, white-walled plate, followed by addition to each well of 50 μL of QUANTI-LUC solution containing stabilizer. Luminescence was detected on a plate reader according to manufacturer's instructions. Percent inhibition of interferon was calculated using the following analysis: (Average DMSO−Sample)/(Average DMSO−Average 30 μM control reagent)*100. Percent induction of interferon was calculated using the following analysis: (Sample−Average DMSO)/(10 μM control reagent−Average DMSO)*100.

[2] = molecular target: T1, LINE1 reverse transcriptase (Homo sapiens, UniProt O00370); assay: Stable artificial-intron Cis LINE1 reporter assay; format: cell-based; set-up: expressed in transfected cells; host or cells: HeLa Tet-On 3G (Takara, cat no 631183)
From the text: A stable HeLa Tet-On 3G (Takara, cat no 631183) cell line expressing a bi-directional inducible LINE1 construct was generated as described in Xie, Y. et al. “Cell division promotes efficient retrotransposition in a stable L1 reporter cell line,” Mobile DNA (2013) 4:10. Single cell clones were screened for high Luciferase expression and the highest expression Firefly expressing clone was chosen for compound testing.
Test compounds were serially diluted in DMSO and spotted in 96-well plates. Subsequently the HeLa L1 artificial-intron reporter cells were plated into the compound-containing wells (8,000 cells/well), and the cells were induced for reporter expression with doxycycline (Sigma cat no D9891) at a final concentration of 500 ng/mL. Luminescence was measured 72 h after plating using the Dual-Glo Luciferase Assay System (Promega cat no E2940) following the manufacturer's instructions. The Firefly Luciferase activity (normalized against its activity in a control well without test compound) was used to report LINE1 activity.

[3] = molecular target: T2, HERV-K reverse transcriptase (2-596)-8His protein (Homo sapiens, UniProt V9H0F6); assay: Homogeneous time-resolved fluorescence (HTRF) HERV-K RT assay; format: biochemical; conditions: tetra(sodium) salt; 25° C., 30 minutes
T2 construct: fused on or other part: C-terminal 8His tag
Protocol: The HERV-K reverse transcriptase homogeneous time-resolved fluorescence (HTRF) assay was performed in a 384-well format with HERV-K reverse transcriptase (2-596)-8His protein. Baculoviruses were created using Bac-to-Bac technology (Invitrogen). pFastBac donor plasmids containing HERV-K reverse transcriptase sequence (NCBI GenBank number AAC63291.1, J. Virology (1999) Vol. 73, No. 3, pp. 2365-2375) were transformed into DH10 Bac cells following the manufacturer's instructions. Recombinant bacmids were then isolated clonally and transfected into SF9 cells with lipofectin. HERV-K reverse transcriptase was expressed in the SF9 insect cells and then purified using immobilized metal affinity chromatography (IMAC) followed by size-exclusion chromatography (SEC). […]
(§2) After incubating at 25° C. for 30 minutes, the detection reagent 20 mM EDTA with streptavidin-terbium cryptate (Cisbio Bioassay) in the PPI buffer (Cisbio Bioassay) was added, and the mixture was incubated at 25° C. for 60 minutes. At the end of the incubation, fluorescence was read at ex/em=337/485 nm and ex/em=337/520 nm on an Envision 2104 plate reader (Perkin Elmer). The fluorescence ratio at 520/485 nm was used for the calculation. […] The IC50 was calculated by fitting the compound dose inhibition curve with a 4-parameter non-linear regression equation.

[4] = molecular target: T1, LINE1 reverse transcriptase; assay: Transient artificial-intron Cis LINE1 reporter assay; format: cell-based; set-up: expressed in transfected cells
Protocol: Intron-disrupted Firefly luciferase (FLuc) expression cassettes were generated as described by Xie, Y. et al. “Characterization of L1 retrotransposition with high-throughput dual-luciferase assays,” Nucleic Acid Res. (2011) Vol. 39, No. 3, e16. In addition, the plasmid contained an intact Renilla luciferase (RLuc) expression cassette on the vector backbone, in order to normalize transfection efficiency and measure potential cell toxicity.
HEK 293 cells were seeded in 96-well plates at 1,000 cells/well in 55 μL and grown for 24 hours. Cells were transfected with FuGeneHD (Promega) following the manufacturer's protocol. Each well received 0.133 ng plasmid, 0.4 μL FuGeneHD reagent, and 4.5 μL GlutaMAX-I-supplemented Opti-MEM I reduced-serum medium (Invitrogen). Cells were simultaneously treated with test compound serially diluted starting at 100 μM in a 3-fold dilution dose response.
Luminescence was measured using the Dual-Glo Luciferase Assay System (Promega) following the manufacturer's instructions. The ratio between FLuc and RLuc gene expression (each of which was normalized against its expression in a control well without test compound) was used to report LINE1 activity.

[5] = CellTiter-Glo cell viability in THP1-Dual KO-TREX1 cells; format: cell-based; conditions: human, 10 μM compound (highest dose), five days, read-out: CellTiter-Glo average inhibition (cell viability)
Protocol: as §1
THP1-Dual™ KO-TREX1 cells were treated with 1 μM 5-aza-2′-deoxycytidine. The THP1-Dual™ KO-TREX1 cells (50 μL) were added to each well of the 384-well plate containing test compound titration at 10,000 cells/well. Cells were incubated at 37° C., 5% CO2 in a humidified incubator for five days. […] Luminescence was detected on a plate reader according to manufacturer's instructions. […] Percent induction of interferon was calculated using the following analysis: (Sample−Average DMSO)/(10 μM control reagent−Average DMSO)*100.
The remaining cells were assessed for cell viability by adding 30 μl of CellTiter-Glo (Promega, G9683) solution to each well, and placed on a shaker for 10 minutes at room temperature. Luminescence was detected on a plate reader, according to manufacturer's instructions. Percent inhibition of cell viability using CellTiter-Glo was calculated using the following analysis. […]

[6] = molecular target: T3, recombinant MBP-tagged LINE1 protein (238-1061) (Homo sapiens, UniProt O00370); assay: Homogeneous time-resolved fluorescence (HTRF) LINE1 RT assay; format: biochemical; conditions: tetra(sodium) salt; 25° C., 60 minutes
T3 construct: recombinant MBP-tagged LINE1 protein (238-1061); made in house
Protocol: The LINE1 reverse transcriptase homogeneous time-resolved fluorescence (HTRF) assay was performed with recombinant MBP-tagged LINE1 protein (238-1061) (generated and purified according to procedures in Dai L. et al. BMC Biochemistry 2011; 12:18) in a 384-well format. Test compound was serially diluted in DMSO and further diluted in the assay buffer (50 mM Tris-HCl, 50 mM KCl, 10 mM MgCl2, 10 mM DTT, pH 8.1) to achieve a final DMSO concentration of 1%. The serially diluted compound was mixed with 64 ng/well of LINE1 enzyme, 5 nM of pre-annealed template/biotin-primer pair (synthesized at Generay Biotechnology), 10 nM of Fluorescein-12-dATP fluorescent probe (Perkin Elmer), and 1 μM dGTP/dCTP/dTTP (Thermo Fisher Scientific) in the assay buffer. The template/biotin-primer sequences were as follows:
as §2, with “for 60” for “for 30”, “reagent (20” for “reagent 20”, “streptavidin-terbium cryptate, Cisbio” for “streptavidin-terbium cryptate (Cisbio”, “for 30” for “for 60”

[7] = HeLa Tet-On 3G L1 reporter cells, doxycycline 500 ng/mL, 72 h, Firefly luciferase, read-out: IC50
[8] = HEK 293 cells, transient LINE1 reporter, no detectable IC50 when tested at concentrations up to 100 μM, read-out: IC50
[9] = HEK 293 cells, FLuc/RLuc ratio, transient LINE1 reporter, read-out: IC50

T2 sequence (V9H0F6 entry or part of it): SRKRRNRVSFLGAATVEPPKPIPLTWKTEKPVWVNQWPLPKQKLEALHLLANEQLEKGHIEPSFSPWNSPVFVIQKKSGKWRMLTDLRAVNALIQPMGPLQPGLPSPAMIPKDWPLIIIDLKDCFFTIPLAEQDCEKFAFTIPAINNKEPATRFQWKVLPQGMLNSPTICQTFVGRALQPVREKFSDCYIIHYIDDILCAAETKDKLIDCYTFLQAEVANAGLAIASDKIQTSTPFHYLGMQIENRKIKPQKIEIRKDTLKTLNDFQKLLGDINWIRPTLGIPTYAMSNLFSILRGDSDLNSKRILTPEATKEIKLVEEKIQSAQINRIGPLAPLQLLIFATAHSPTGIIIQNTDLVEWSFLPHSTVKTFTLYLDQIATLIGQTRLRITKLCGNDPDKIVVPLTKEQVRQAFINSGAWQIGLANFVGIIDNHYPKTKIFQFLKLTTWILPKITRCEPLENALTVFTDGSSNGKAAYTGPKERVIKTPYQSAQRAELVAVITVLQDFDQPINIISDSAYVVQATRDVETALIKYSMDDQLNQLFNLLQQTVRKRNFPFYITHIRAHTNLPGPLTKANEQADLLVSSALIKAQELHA

Row | IC50 [2, 7] [nM] | SMILES | changes in IFN levels (inhibition or induction of IFN) [1] | other results
1 |  | C[C@H](Cn1cnc2c(N)ncnc21)OCP(=O)(O)OP(=O)(O)OP(=O)(O)O [drawing 1228] |  | IC50 [3]: 20 nM
2 | > 500 | Nc1ccn([C@@H]2CS[C@H](CO)O2)c(=O)n1 [lamivudine (3TC), lamivudine, reference compound] |  | IC50 [4, 8]: > 100000 nM
3 |  | CC(C)OC(=O)[C@H](C)N[P@](=O)(CO[C@H](C)Cn1cnc2c(N)ncnc21)Oc1ccccc1 [Compound I-1] | inhibition of IFN | IC50 [2]: < 50 nM; cytotoxicity at 5 days, 10 μM [5]: 57%; IC50 [4]: < 50 nM
4 | > 500 | C[C@H](Cn1cnc2c(N)ncnc21)OCP(=O)(O)O [Compound V-1] | inhibition of IFN | IC50 [4, 9]: > 500 nM
5 |  | Nc1ccn([C@H]2CO[C@@H](CO)S2)c(=O)n1 [apricitabine] |  | IC50 [4, 8]: > 100000 nM
6 | 50 to 500 | CC(C)OC(=O)OCOP(=O)(CO[C@H](C)Cn1cnc2c(N)ncnc21)OCOC(=O)OC(C)C [Compound V-7] |  | IC50 [4, 9]: < 50 nM
7 |  | C[C@H](Cn1cnc2c(N)ncnc21)OCP(=O)(O)OP(=O)(O)OP(=O)(O)O [drawing 1227] |  | IC50 [6]: 71 nM
8 | > 500 | C[C@H](Cc1ccc2c(N)ncnn12)OCP(=O)(O)O [Compound V-105] |  | 
9 | > 500 | Nc1nc(=O)c2ncn([C@@H]3C[C@H](CO)[C@H]3CO)c2[nH]1 [lobucavir, reference compound] |  | IC50 [4, 8]: > 100000 nM
10 | > 500 | Cc1cn([C@H]2C[C@H](N=[N+]=[N-])[C@@H](CO)O2)c(=O)[nH]c1=O [AZT (zidovudine), zidovudine, reference compound] |  | IC50 [4, 8]: > 100000 nM
11 | > 500 | CC(C)OC(=O)OCOP(=O)(CO[C@H](C)Cc1ccc2c(N)ncnn12)OCOC(=O)OC(C)C [Compound V-106] |  | 

Row | SMILES | IC50 [2, 7] [nM] | changes in IFN levels (inhibition or induction of IFN) [1] | other results
12 | CC(C)OC(=O)[C@H](C)NP(=O)(CO[C@H](C)Cc1ccc2c(N)ncnn12)Oc1ccccc1 (some centres unmarked) [Compound I-115] | 50 to 500 | induction of IFN | 
13 | CC(C)OC(=O)C(C)(C)N[P@@](=O)(CO[C@H](C)Cn1cnc2c(N)ncnc21)Oc1ccccc1 [Compound I-21] | 50 to 500 | induction of IFN | 
14 | CC(C)OC(=O)C(C)(C)N[P@](=O)(CO[C@H](C)Cn1cnc2c(N)ncnc21)Oc1ccccc1 [Compound I-20] | < 50 | inhibition of IFN | cytotoxicity at 5 days, 10 μM [5]: 65%
15 | CCCCCCCCCCCCCCCCOCCCOP(=O)(O)CO[C@H](C)Cn1cnc2c(N)ncnc21 [VI-1] | 50 to 500 | induction of IFN | 
